Measurements as given in ChEMBL document CHEMBL1201862, “PubChem BioAssay data set” (2004).
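Test compounds were applied to cells in 96-well plates for 48 hours at 5 doses. GI50: concentration for 50% inhibition of growth.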 The source made the active and inactive calls. Cut-off read from the data, not from the text of the source: active = GI50 up to about 1.1 µM and inactive = higher.

Columns and labels:
Experiment in all cases: inhibition of tumour cell growth, NCI panel, 48 h
[1] = system: 786-0
[2] = system: A498
[3] = system: A549
[4] = system: ACHN
[5] = system: BT-549
[6] = system: CAKI-1
[7] = system: CCRF-CEM
[8] = system: COLO 205
[9] = system: DU-145
[10] = system: EKVX
[11] = system: HCC 2998
[12] = system: HCT-116
[13] = system: HCT-15
[14] = system: HL-60
[15] = system: HOP-62
[16] = system: HOP-92
[17] = system: HT-29
[18] = system: IGROV-1
[19] = system: K562
[20] = system: KM12
[21] = system: M14
[22] = system: MCF7
[23] = system: MDA-MB-231
[24] = system: MDA-MB-435
[25] = system: MDA-N
[26] = system: MOLT-4
[27] = system: Malme-3M
[28] = system: NCI-H226
[29] = system: NCI-H23
[30] = system: NCI-H460
[31] = system: NCI/ADR-RES
[32] = system: OVCAR-3
[33] = system: OVCAR-4
[34] = system: OVCAR-5
[35] = system: OVCAR-8
[36] = system: PC-3
[37] = system: RPMI-8226
[38] = system: RXF 393
[39] = system: SF-268
[40] = system: SF-295
[41] = system: SF-539
[42] = system: SK-MEL-28
[43] = system: SN12C
[44] = system: SNB-19
[45] = system: SR
[46] = system: SW-620
[47] = system: T47D
[48] = system: TK-10
[49] = system: U-251
[50] = system: UACC-257
[51] = system: UACC-62
[52] = system: UO-31
[53] = system: Hs-578T
[54] = system: LOX IMVI
[55] = system: NCI-H522
[56] = system: SK-MEL-2
[57] = system: SK-MEL-5
[58] = system: SK-OV-3
[59] = system: SNB-75

For CC1(C)Cc2ccccc2C(C)(Cl)C(=O)N1 (configuration not stated), the GI50 [1] was > 10 µM (inactive), the GI50 [2] was > 10 µM (inactive) and the GI50 [3] was > 10 µM (inactive). The GI50 [4] was > 10 µM (inactive), the GI50 [5] was > 10 µM (inactive) and the GI50 [6] was > 10 µM (inactive). The GI50 [7] was > 10 µM (inactive), the GI50 [8] was > 10 µM (inactive) and the GI50 [9] was > 10 µM (inactive). The GI50 [10] was > 10 µM (inactive), the GI50 [11] was > 10 µM (inactive) and the GI50 [12] was > 10 µM (inactive). The GI50 [13] was greater than 10 µM, the GI50 [14] was > 10 µM (inactive) and the GI50 [15] was > 10 µM (inactive). For the same compound, the GI50 [16] was > 10 µM (inactive), the GI50 [17] was > 10 µM (inactive) and the GI50 [18] was > 10 µM (inactive). The GI50 [19] was > 10 µM (inactive), the GI50 [20] was > 10 µM (inactive) and the GI50 [21] was > 10 µM (inactive). The GI50 [22] was > 10 µM (inactive), the GI50 [23] was > 10 µM (inactive) and the GI50 [24] was > 10 µM (inactive). For the same compound, the GI50 [25] was > 10 µM (inactive), the GI50 [26] was > 10 µM (inactive) and the GI50 [27] was > 10 µM (inactive). The GI50 [28] was > 10 µM (inactive), the GI50 [29] was > 10 µM (inactive) and the GI50 [30] was > 10 µM (inactive). The GI50 [31] was > 10 µM (inactive), the GI50 [32] was > 10 µM (inactive) and the GI50 [33] was > 10 µM (inactive). For the same compound, the GI50 [34] was > 10 µM (inactive), the GI50 [35] was > 10 µM (inactive) and the GI50 [36] was > 10 µM (inactive). The GI50 [37] was > 10 µM (inactive), the GI50 [38] was > 10 µM (inactive) and the GI50 [39] was > 10 µM (inactive). For the same compound, the GI50 [40] was > 10 µM (inactive), the GI50 [41] was > 10 µM (inactive) and the GI50 [42] was > 10 µM (inactive). The GI50 [43] was > 10 µM (inactive), the GI50 [44] was > 10 µM (inactive) and the GI50 [45] was > 10 µM (inactive). For the same compound, the GI50 [46] was > 10 µM (inactive), the GI50 [47] was > 10 µM (inactive) and the GI50 [48] was > 10 µM (inactive). The GI50 [49] was > 10 µM (inactive), the GI50 [50] was > 10 µM (inactive) and the GI50 [51] was > 10 µM (inactive). The GI50 [52] was > 10 µM (inactive).

In the case of CC(C)(CCCCC(C)(C)NC1=NCCO1)NC1=NCCO1, the GI50 [2] is reported as > 10 µM (inactive), the GI50 [3] is reported as > 10 µM (inactive) and the GI50 [4] is reported as > 10 µM (inactive). For the same compound, the GI50 [6] was > 10 µM (inactive), the GI50 [7] was > 10 µM (inactive) and the GI50 [8] was > 10 µM (inactive). The GI50 [9] was > 10 µM (inactive), the GI50 [10] was > 10 µM (inactive) and the GI50 [11] was > 10 µM (inactive). The GI50 [12] was > 10 µM (inactive), the GI50 [13] was greater than 10 µM and the GI50 [14] was > 10 µM (inactive). For the same compound, the GI50 [15] was > 10 µM (inactive), the GI50 [17] was > 10 µM (inactive) and the GI50 [53] was > 10 µM (inactive). The GI50 [18] was > 10 µM (inactive), the GI50 [19] was > 10 µM (inactive) and the GI50 [20] was > 10 µM (inactive). For the same compound, the GI50 [54] was > 10 µM (inactive), the GI50 [21] was > 10 µM (inactive) and the GI50 [22] was > 10 µM (inactive). For the same compound, the GI50 [23] was > 10 µM (inactive), the GI50 [24] was > 10 µM (inactive) and the GI50 [25] was > 10 µM (inactive). For the same compound, the GI50 [26] was > 10 µM (inactive), the GI50 [27] was > 10 µM (inactive) and the GI50 [28] was > 10 µM (inactive). The GI50 [29] was > 10 µM (inactive), the GI50 [30] was > 10 µM (inactive) and the GI50 [55] was > 10 µM (inactive). The GI50 [31] was > 10 µM (inactive), the GI50 [32] was > 10 µM (inactive) and the GI50 [33] was > 10 µM (inactive). The GI50 [34] was > 10 µM (inactive), the GI50 [35] was > 10 µM (inactive) and the GI50 [36] was > 10 µM (inactive). For the same compound, the GI50 [37] was > 10 µM (inactive), the GI50 [38] was > 10 µM (inactive) and the GI50 [39] was > 10 µM (inactive). The GI50 [40] was > 10 µM (inactive), the GI50 [41] was > 10 µM (inactive) and the GI50 [42] was > 10 µM (inactive). For the same compound, the GI50 [56] was > 10 µM (inactive), the GI50 [57] was > 10 µM (inactive) and the GI50 [58] was > 10 µM (inactive). For the same compound, the GI50 [43] was > 10 µM (inactive), the GI50 [44] was > 10 µM (inactive) and the GI50 [59] was > 10 µM (inactive). The GI50 [45] was > 10 µM (inactive), the GI50 [46] was > 10 µM (inactive) and the GI50 [47] was > 10 µM (inactive). For the same compound, the GI50 [48] was > 10 µM (inactive), the GI50 [49] was > 10 µM (inactive) and the GI50 [51] was > 10 µM (inactive). The GI50 [52] was > 10 µM (inactive).
